# Biological target: T1, A disintegrin and metalloproteinase with thrombospondin motifs 5 (Homo sapiens, UniProt Q9UNA0)
# T1 sequence (Q9UNA0 whole entry): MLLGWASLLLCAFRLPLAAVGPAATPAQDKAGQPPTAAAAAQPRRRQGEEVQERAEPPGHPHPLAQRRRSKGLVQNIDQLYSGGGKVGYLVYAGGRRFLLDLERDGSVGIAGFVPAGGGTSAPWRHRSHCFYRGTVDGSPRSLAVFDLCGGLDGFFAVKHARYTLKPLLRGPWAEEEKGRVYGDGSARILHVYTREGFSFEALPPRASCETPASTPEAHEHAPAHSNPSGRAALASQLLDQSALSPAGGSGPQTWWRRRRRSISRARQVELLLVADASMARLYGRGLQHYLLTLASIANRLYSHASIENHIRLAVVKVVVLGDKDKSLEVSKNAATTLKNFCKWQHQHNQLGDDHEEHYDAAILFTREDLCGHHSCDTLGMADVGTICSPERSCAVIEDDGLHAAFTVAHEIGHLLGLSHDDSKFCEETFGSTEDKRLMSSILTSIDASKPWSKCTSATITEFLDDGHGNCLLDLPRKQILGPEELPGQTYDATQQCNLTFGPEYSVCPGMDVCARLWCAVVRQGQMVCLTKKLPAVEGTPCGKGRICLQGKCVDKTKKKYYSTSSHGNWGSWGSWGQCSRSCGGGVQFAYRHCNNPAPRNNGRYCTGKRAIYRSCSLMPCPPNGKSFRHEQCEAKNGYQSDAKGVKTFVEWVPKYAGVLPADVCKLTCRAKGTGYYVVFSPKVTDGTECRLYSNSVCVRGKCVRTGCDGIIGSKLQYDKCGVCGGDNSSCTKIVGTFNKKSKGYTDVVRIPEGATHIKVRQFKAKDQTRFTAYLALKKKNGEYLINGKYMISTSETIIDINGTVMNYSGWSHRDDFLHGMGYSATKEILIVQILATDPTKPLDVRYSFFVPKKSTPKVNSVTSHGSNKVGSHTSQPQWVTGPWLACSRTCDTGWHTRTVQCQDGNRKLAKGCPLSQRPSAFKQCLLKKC
# Assay: Inhibition of human recombinant ADAMTS5 by fluorimetric assay
row,IC50,SMILES
1,24.3 µM,COc1ccc(CCc2nnc([C@H](CCC(=O)O)NC(=O)c3ccc(-c4ccccc4)cc3)o2)cc1
2,4.3 µM,COc1cc(CCc2nnc([C@H](CCC(=O)O)NC(=O)c3ccc(-c4ccccc4)cc3)o2)cc(OC)c1OC
3,57.3 µM,O=C(O)CC[C@H](NC(=O)c1ccc(-c2ccccc2)cc1)c1nnc(CCc2ccccc2)o1
4,0.8 µM,COc1cc(Cc2nnc([C@H](CCC(=O)O)NC(=O)c3ccc(-c4ccccc4)cc3)o2)cc(OC)c1OC

# Biological target: T2, A disintegrin and metalloproteinase with thrombospondin motifs 4 (Homo sapiens) (UniProt O75173)
# T2 sequence (whole entry): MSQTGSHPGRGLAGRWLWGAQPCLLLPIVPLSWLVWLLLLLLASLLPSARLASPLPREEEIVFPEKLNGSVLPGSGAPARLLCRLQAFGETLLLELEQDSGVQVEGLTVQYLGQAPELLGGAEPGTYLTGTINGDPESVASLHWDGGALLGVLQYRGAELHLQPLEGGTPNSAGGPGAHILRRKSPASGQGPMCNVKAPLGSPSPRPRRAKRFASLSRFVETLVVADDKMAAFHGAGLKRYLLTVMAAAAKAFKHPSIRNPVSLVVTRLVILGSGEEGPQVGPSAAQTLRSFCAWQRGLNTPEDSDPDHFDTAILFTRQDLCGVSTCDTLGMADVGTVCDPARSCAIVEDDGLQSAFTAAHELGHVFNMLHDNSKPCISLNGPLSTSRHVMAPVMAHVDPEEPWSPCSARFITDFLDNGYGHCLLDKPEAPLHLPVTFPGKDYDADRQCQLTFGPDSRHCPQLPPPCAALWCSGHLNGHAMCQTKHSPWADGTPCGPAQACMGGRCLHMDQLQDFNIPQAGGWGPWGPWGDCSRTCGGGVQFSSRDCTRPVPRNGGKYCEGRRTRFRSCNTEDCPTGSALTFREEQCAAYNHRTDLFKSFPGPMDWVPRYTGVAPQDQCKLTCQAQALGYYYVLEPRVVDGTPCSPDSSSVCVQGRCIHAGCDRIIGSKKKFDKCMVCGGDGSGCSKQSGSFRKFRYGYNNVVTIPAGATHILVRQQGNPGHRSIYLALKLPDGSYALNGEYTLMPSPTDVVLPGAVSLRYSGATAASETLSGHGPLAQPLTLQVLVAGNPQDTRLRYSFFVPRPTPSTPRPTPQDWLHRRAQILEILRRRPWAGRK
# Assay: (§1) Inhibition of human recombinant ADAMTS4 by fluorimetric assay
row,inhibition,SMILES
1,Dose-dependent effect,COc1ccc(CCc2nnc([C@H](CCC(=O)O)NC(=O)c3ccc(-c4ccccc4)cc3)o2)cc1
2,Dose-dependent effect,COc1cc(CCc2nnc([C@H](CCC(=O)O)NC(=O)c3ccc(-c4ccccc4)cc3)o2)cc(OC)c1OC
3,Dose-dependent effect,O=C(O)CC[C@H](NC(=O)c1ccc(-c2ccccc2)cc1)c1nnc(CCc2ccccc2)o1
4,Dose-dependent effect,COc1cc(Cc2nnc([C@H](CCC(=O)O)NC(=O)c3ccc(-c4ccccc4)cc3)o2)cc(OC)c1OC

# Biological target: T3, A disintegrin and metalloproteinase with thrombospondin motifs 4 (Homo sapiens, UniProt O75173)
# T3 sequence (O75173 whole entry): T2 sequence (whole entry)
# Assay: as §1
row,IC50,SMILES
1,4.9 µM,COc1ccc(CCc2nnc([C@H](CCC(=O)O)NC(=O)c3ccc(-c4ccccc4)cc3)o2)cc1
2,3.3 µM,COc1cc(CCc2nnc([C@H](CCC(=O)O)NC(=O)c3ccc(-c4ccccc4)cc3)o2)cc(OC)c1OC
3,9.7 µM,O=C(O)CC[C@H](NC(=O)c1ccc(-c2ccccc2)cc1)c1nnc(CCc2ccccc2)o1
4,1.2 µM,COc1cc(Cc2nnc([C@H](CCC(=O)O)NC(=O)c3ccc(-c4ccccc4)cc3)o2)cc(OC)c1OC

# Biological target: T2, A disintegrin and metalloproteinase with thrombospondin motifs 4 (Homo sapiens)
# Assay: Inhibition of human recombinant ADAMTS4 at 1 uM by fluorimetric assay
row,SMILES,inhibition
1,CC(C)(c1ccccc1)c1nnc([C@H](CCC(=O)O)NC(=O)c2ccc(-c3ccccc3)cc2)o1,-5%
2,COc1ccc(CCc2nnc([C@H](CCC(=O)O)NC(=O)c3ccc(-c4ccccc4)cc3)o2)cc1,35%
3,O=C(O)CC[C@H](NC(=O)c1ccc(-c2ccccc2)cc1)c1nnc(CCc2ccc(O)cc2)o1,22%
4,O=C(O)CC[C@H](NC(=O)c1ccc(-c2ccncc2)cc1)c1nnc(CCc2ccccc2)o1,8%
5,O=C(O)CC[C@H](NC(=O)c1ccc(-c2ccccc2)cc1)c1nnc(CCc2ccccc2)o1,30%
6,CC(C)(Cc1ccccc1)c1nnc([C@H](CCC(=O)O)NC(=O)c2ccc(-c3ccccc3)cc2)o1,23%
7,Cc1ccc(CCc2nnc([C@H](CCC(=O)O)NC(=O)c3ccc(-c4ccccc4)cc3)o2)cc1,27%
8,O=C(O)CC[C@H](NC(=O)c1ccc(-c2ccccc2)cc1)c1nnc(C2(c3ccccc3)CC2)o1,5%
9,COc1cc(Cc2nnc([C@H](CCC(=O)O)NC(=O)c3ccc(-c4ccccc4)cc3)o2)cc(OC)c1OC,47%

# Next, values leading:
row,inhibition,SMILES
1,17%,O=C(O)CC[C@H](NC(=O)c1ccc(-c2ccccc2)cc1)c1nnc(Cc2ccccc2)o1
2,35%,COc1cc(CCc2nnc([C@H](CCC(=O)O)NC(=O)c3ccc(-c4ccccc4)cc3)o2)cc(OC)c1OC
3,19%,CC(C)(Cc1nnc([C@H](CCC(=O)O)NC(=O)c2ccc(-c3ccccc3)cc2)o1)c1ccccc1
4,5%,COc1ccc(Cc2nnc([C@H](CCC(=O)O)NC(=O)c3ccc(-c4ccccc4)cc3)o2)cc1
5,12%,O=C(O)CC[C@H](NC(=O)c1ccc(-c2cccnc2)cc1)c1nnc(CCc2ccccc2)o1

# Biological target: T2, A disintegrin and metalloproteinase with thrombospondin motifs 4 (Homo sapiens)
# Assay: Inhibition of human recombinant ADAMTS4 at 10 uM by fluorimetric assay
row,SMILES,inhibition
1,CC(C)(c1ccccc1)c1nnc([C@H](CCC(=O)O)NC(=O)c2ccc(-c3ccccc3)cc2)o1,5%
2,COc1ccc(CCc2nnc([C@H](CCC(=O)O)NC(=O)c3ccc(-c4ccccc4)cc3)o2)cc1,66%
3,O=C(O)CC[C@H](NC(=O)c1ccc(-c2ccccc2)cc1)c1nnc(CCc2ccc(O)cc2)o1,51%
4,O=C(O)CC[C@H](NC(=O)c1ccc(-c2ccncc2)cc1)c1nnc(CCc2ccccc2)o1,18%
5,O=C(O)CC[C@H](NC(=O)c1ccc(-c2ccccc2)cc1)c1nnc(CCc2ccccc2)o1,59%
6,CC(C)(Cc1ccccc1)c1nnc([C@H](CCC(=O)O)NC(=O)c2ccc(-c3ccccc3)cc2)o1,47%
7,Cc1ccc(CCc2nnc([C@H](CCC(=O)O)NC(=O)c3ccc(-c4ccccc4)cc3)o2)cc1,56%
8,O=C(O)CC[C@H](NC(=O)c1ccc(-c2ccccc2)cc1)c1nnc(C2(c3ccccc3)CC2)o1,20%
9,COc1cc(Cc2nnc([C@H](CCC(=O)O)NC(=O)c3ccc(-c4ccccc4)cc3)o2)cc(OC)c1OC,86%

# Now from value to compound:
row,inhibition,SMILES
1,26%,O=C(O)CC[C@H](NC(=O)c1ccc(-c2ccccc2)cc1)c1nnc(Cc2ccccc2)o1
2,74%,COc1cc(CCc2nnc([C@H](CCC(=O)O)NC(=O)c3ccc(-c4ccccc4)cc3)o2)cc(OC)c1OC
3,45%,CC(C)(Cc1nnc([C@H](CCC(=O)O)NC(=O)c2ccc(-c3ccccc3)cc2)o1)c1ccccc1
4,21%,COc1ccc(Cc2nnc([C@H](CCC(=O)O)NC(=O)c3ccc(-c4ccccc4)cc3)o2)cc1
5,39%,O=C(O)CC[C@H](NC(=O)c1ccc(-c2cccnc2)cc1)c1nnc(CCc2ccccc2)o1

# Biological target: not listed separately
# Assay: Inhibition of aggrecanase
row,IC50,SMILES
1,1.5 nM,O=C(C[C@@H](Cc1ccc(-c2ccc3c(c2)OCO3)cc1)C(=O)N[C@@H]1c2ccccc2C[C@@H]1O)NO

# Reference: ChEMBL document CHEMBL1806479, “Structure-activity study on a series of α-glutamic acid scaffold based compounds as new ADAMTS inhibitors” (Bioorg Med Chem Lett, 2011)
